In one experiment the target is T1, hP2X2/3H (Homo sapiens, UniProt P56373+Q9UBL9).
T1 construct: expressed in transfected cells; host or cells: e.g. HEK293 or 1321N1
T1 sequence (Q9UBL9 1-471): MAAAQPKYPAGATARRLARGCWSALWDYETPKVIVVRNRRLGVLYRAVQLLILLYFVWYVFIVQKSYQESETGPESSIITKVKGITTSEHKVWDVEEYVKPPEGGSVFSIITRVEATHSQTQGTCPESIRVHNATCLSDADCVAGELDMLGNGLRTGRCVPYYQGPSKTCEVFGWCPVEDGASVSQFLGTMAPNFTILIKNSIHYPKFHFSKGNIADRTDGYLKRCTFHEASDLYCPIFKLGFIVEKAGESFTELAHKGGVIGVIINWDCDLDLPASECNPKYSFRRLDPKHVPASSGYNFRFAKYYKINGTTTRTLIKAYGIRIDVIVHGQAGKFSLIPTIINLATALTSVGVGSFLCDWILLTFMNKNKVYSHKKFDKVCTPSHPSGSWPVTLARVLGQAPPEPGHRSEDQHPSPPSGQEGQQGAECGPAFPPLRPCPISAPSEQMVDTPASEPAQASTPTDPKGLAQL
T1 sequence (P56373 1-397): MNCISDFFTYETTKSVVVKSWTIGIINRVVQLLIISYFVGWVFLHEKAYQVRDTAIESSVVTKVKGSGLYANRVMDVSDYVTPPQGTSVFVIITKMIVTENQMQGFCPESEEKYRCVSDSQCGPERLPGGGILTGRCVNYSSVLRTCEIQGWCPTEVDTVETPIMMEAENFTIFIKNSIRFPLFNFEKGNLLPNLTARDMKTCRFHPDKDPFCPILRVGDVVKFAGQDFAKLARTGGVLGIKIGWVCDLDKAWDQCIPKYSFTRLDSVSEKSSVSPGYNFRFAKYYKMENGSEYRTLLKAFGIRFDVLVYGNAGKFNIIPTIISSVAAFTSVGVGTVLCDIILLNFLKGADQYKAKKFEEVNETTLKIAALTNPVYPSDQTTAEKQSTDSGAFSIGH
The experiment in a line: Calcium uptake assay (P2X antagonist assay), P2X2/3 heteromer. The experiment is classed as cell-based. The following applies: calcium uptake assay, hP2X2/3H; read-out: IC50 hP2X2/3H (nM), Ca Influx. An excerpt:
(§1) The human P2X2/3 chimera clone is created as described by Neelands et al, and then cloned into an expression vector as above. Receptors are expressed in cells (e.g., HEK293 or 1321N1 (obtained from the ECACC)) via transient transfection using standard lipid mediated transfection, or by creation of stable transfectants for each receptor. For expression of the P2X2/3 heteromeric receptor, the P2X3 expression vector is stably transfected into a cell line already stably expressing P2X2. P2X2/3 heteromer function is isolated using pharmacological methods. Cell lines are maintained in DMEM+5% Glutamax, the appropriate level of selective antibiotic, and 10% heat inactivated FBS.
(§2) Functional activity of compounds at the P2X receptor is determined by measuring their ability to inhibit agonist-induced calcium influx. Compounds are tested for antagonist activity against the P2X2/3 chimera, the P2X3 homomer, or the P2X2/3 heteromer. At the start of each screening day, the agonist EC50 is determined. Compound % inhibition or IC50s are subsequently determined using a predetermined agonist concentration (EC50-90 depending on cell line) as a stimulus. The agonists used are αβMeATP, ATP, or other ATP analogs. Compounds may be tested at concentrations ranging from 1 pM to 10 μM.
(§3) To test for antagonist activity, cells expressing the appropriate receptor are seeded onto 96 or 384 well plates 18-24 hours prior to assay. […] Plates are incubated at 37° C. and then equilibrated at room temperature. Antagonism of agonist-induced calcium influx is measured using a fluorescent imaging plate reader (e.g. FLIPR^TETRA, Molecular Devices, Sunnyvale, Calif.). The assay comprises two stages: a pre-treatment phase followed by a treatment phase. Compounds may be tested as follows: For the pre-treatment phase, 50 μL of 3× concentration of test compound in HBSS is added to cells containing […], of dye loading media to achieve a final concentration of 1× test compound. For the treatment phase, at a set interval after pre-treatment (1-30 minutes), 50 μL of 1× test compound plus 4× agonist solution is added, resulting in a final concentration of 1× compound and 1× agonist. […] Responses are measured as (peak fluorescence after agonist addition) minus (baseline fluorescence prior to treatment). Percent inhibition is calculated as follows:
(§4) [formula] IC50 values are determined by analyzing dose response data in a 4 parameter logistic fit using GraphPad Prizm.

The next experiment has as its target T2, hP2X3 (Homo sapiens, UniProt P56373).
T2 construct: expressed in transfected cells; host or cells: e.g. HEK293 or 1321N1
T2 sequence (P56373 1-397): T1 sequence (P56373 1-397)
The experiment in a line: Calcium uptake assay (P2X antagonist assay), P2X3 homomer. The experiment is classed as cell-based. The settings on record: calcium uptake assay, hP2X3; read-out: IC50 hP2X3 (nM), Ca Influx.
From the text: as §1, §2, §3, §4

Take `Cc1ccc(-c2cc(C(=O)NCc3cnc(C)nc3)cc(C(=O)N3CCN(C)CC3)c2)cc1` [Compound 25]: the IC50 on hP2X2/3H was 100 to 500 nM; at hP2X3 it was less than 100 nM.
In the case of `Cc1ccc(-c2cc(C(=O)NC(C)c3ccc(Cl)c(S(C)(=O)=O)c3)cc(S(C)(=O)=O)c2)cc1` (stereo not shown) [Compound 26], the IC50 at hP2X2/3H and at hP2X3 was less than 100 nM throughout.
Consider `Cc1ccc(-c2cc(C(=O)NCc3cnc(C)nc3)cc(C(=O)N3CCN(C)C(=O)C3)c2)cc1` [Compound 27], for which the IC50 is 501 to 1000 nM on hP2X2/3H and less than 100 nM on hP2X3.
Taken in the same sequence, the figures for `Cc1ccc(-c2cc(C(=O)NCc3cnc(C)nc3)cc(C(=O)N3CCCC3)c2)nc1` [Compound 28, 3-(5-Methylpyridin-2-yl)-N-((2-methylpyrimidin-5-yl)methyl)-5-(pyrrolidine-1-carbonyl)benzamide] were 100 to 500 nM and less than 100 nM.
On to `Cc1ccc(-c2cc(C(=O)NCc3cnc(C)nc3)cc(C(=O)N3CC(O)C3)c2)cc1` [Compound 29, 5-(3-Hydroxyazetidine-1-carbonyl)-4′-methyl-N-((2-methylpyrimidin-5-yl)methyl)biphenyl-3-carboxamide], for which the IC50 at hP2X2/3H and at hP2X3 was less than 100 nM in each case.
With `Cc1ccc(-c2cc(C(=O)NCc3cnc(C)nc3)cc(C(=O)N3CCC3)c2)cc1` [Compound 30], the IC50 at hP2X2/3H and at hP2X3 was less than 100 nM throughout.
`Cc1ccc(-c2cc(C(=O)NCc3cnc(C)nc3)cc(C(=O)N3CC3C)c2)cc1` (stereo not shown) [Compound 31, 4′-Methyl-5-(2-methylaziridine-1-carbonyl)-N-((2-methylpyrimidin-5-yl)methyl)biphenyl-3-carboxamide]: the results for the IC50 at hP2X2/3H and on hP2X3 were 501 to 1000 nM and less than 100 nM, respectively.
For `COC1CCN(C(=O)c2cc(C(=O)NCc3cnc(C)nc3)cc(-c3ccc(C)cc3)c2)C1` (stereo not shown) [Compound 32] the same measures were less than 100 nM and less than 100 nM.
With `Cc1ccc(-c2cc(C(=O)NCc3cnc(C)nc3)cc(C(=O)N3CCCC3C(F)(F)F)c2)cc1` (stereo not shown) [Compound 33], the IC50 at hP2X2/3H and at hP2X3 was less than 100 nM throughout.
For the compound `Cc1ccc(-c2cc(C(=O)NCc3cnc(C)nc3)cc(C(=O)N3CCC(F)(F)C3)c2)cc1` [Compound 34, 5-(3,3-Difluoropyrrolidine-1-carbonyl)-4′-methyl-N-((2-methylpyrimidin-5-yl)methyl)biphenyl-3-carboxamide], the IC50 at hP2X2/3H and on hP2X3 was less than 100 nM throughout.
In the case of `Cc1ccc(-c2cc(C(=O)N[C@H](C)c3ccc(C(F)(F)F)nc3)cc(S(C)(=O)=O)c2)cc1` [Compound 35], the IC50 at hP2X2/3H and on hP2X3 was less than 100 nM each time.
With `Cc1ccc(-c2cc(C(=O)NCc3ccc(C)c(S(C)(=O)=O)c3)cc(S(C)(=O)=O)c2)cc1` [Compound 36], the IC50 at hP2X2/3H and at hP2X3 was less than 100 nM each time.
Regarding `Cc1ccc(-c2cc(C(=O)NCc3ccc(C(F)(F)F)nc3)cc(S(C)(=O)=O)c2)cc1` [Compound 37, 4′-Methyl-5-(methylsulfonyl)-N-((6-(trifluoromethyl)pyridin-3-yl)methyl)biphenyl-3-carboxamide], the IC50 on hP2X2/3H and at hP2X3 was 100 to 500 nM in each case.
As to `Cc1ncc(CNC(=O)c2cc(C(=O)N3CCCC3)cc(-c3ccc(F)cc3)c2)cn1` [Compound 38], the results for the IC50 on hP2X2/3H and at hP2X3 were greater than 1000 nM and 100 to 500 nM, respectively.
For the compound `Cc1ccc(-c2cc(C(=O)NCc3cnc(C)nc3)cc(C(=O)N3CCCC3)c2)c(C#N)c1` [Compound 39, 2′-Cyano-4′-methyl-N-((2-methylpyrimidin-5-yl)methyl)-5-(pyrrolidine-1-carbonyl)biphenyl-3-carboxamide], the IC50 at hP2X2/3H and at hP2X3 was less than 100 nM in each case.
`Cc1ncc(CNC(=O)c2cc(C(=O)N3CCCC3)cc(-c3ccc(Cl)cc3)c2)cn1` [Compound 40]: the IC50 at hP2X2/3H is 100 to 500 nM; at hP2X3 it was less than 100 nM.
For the compound `CCCS(=O)(=O)c1cc(C(=O)NCc2ccc(C)c(S(C)(=O)=O)c2)cc(-c2ccc(C)cc2)c1` [Compound 41], the IC50 at hP2X2/3H and at hP2X3 was less than 100 nM each time.
As to `CCCS(=O)(=O)c1cc(C(=O)N[C@@H](C)CO)cc(-c2ccc(C)cc2)c1` [Compound 42], the IC50 at hP2X2/3H was greater than 1000 nM; on hP2X3 it was less than 100 nM.
Turning to `CCCS(=O)(=O)c1cc(C(=O)NCc2cnc(C)nc2)cc(-c2ccc(C)cc2)c1` [Compound 43], the IC50 on hP2X2/3H and on hP2X3 was less than 100 nM throughout.
For the compound `CCCS(=O)(=O)c1cc(C(=O)NCc2ccc(C(F)(F)F)nc2)cc(-c2ccc(C)cc2)c1` [Compound 44], the IC50 at hP2X2/3H and at hP2X3 was 100 to 500 nM throughout.
Turning to `Cc1ccc(-c2cc(C(=O)NC(C)c3ccc(Cl)c(S(C)(=O)=O)c3)cc(C(=O)N3CCCC3)c2)cc1` (stereo not shown) [Compound 45, N-(1-(4-Chloro-3-(methylsulfonyl)phenyl)ethyl)-4′-methyl-5-(pyrrolidine-1-carbonyl)biphenyl-3-carboxamide], the results for the IC50 on hP2X2/3H and on hP2X3 were less than 100 nM and 100 to 500 nM, respectively.
Take `Cc1ccc(-c2cc(C(=O)N[C@H](C)c3ccc(C(F)(F)F)nc3)cc(C(=O)N3CCCC3)c2)cc1` [Compound 46]: the IC50 is less than 100 nM on hP2X2/3H and 100 to 500 nM on hP2X3.
Taken in the same sequence, the figures for `Cc1ccc(-c2cc(C(=O)NCc3ccc(C(F)(F)F)nc3)cc(C(=O)N3CCCC3)c2)cc1` [Compound 47] were 100 to 500 nM and 100 to 500 nM.
Consider `COc1ncc(CNC(=O)c2cc(C(=O)N3CCCC3)cc(-c3ccc(C)cc3)c2)cn1` [Compound 48], for which the IC50 on hP2X2/3H and on hP2X3 was less than 100 nM throughout.
`Cc1ccc(-c2cc(C(=O)NCc3ccc4cccnc4c3)cc(C(=O)N3CCCC3)c2)cc1` [Compound 49, 4′-Methyl-5-(pyrrolidine-1-carbonyl)-N-(quinolin-7-ylmethyl)biphenyl-3-carboxamide]: the IC50 on hP2X2/3H and at hP2X3 was 100 to 500 nM throughout.
`Cc1ccc(-c2cc(C(=O)NCc3ccn4ccnc4c3)cc(C(=O)N3CCCC3)c2)cc1` [Compound 50]: the IC50 at hP2X2/3H and at hP2X3 was less than 100 nM throughout.
`Cc1ccc(-c2cc(C(=O)NCc3cnc(C)cn3)cc(C(=O)N3CCCC3)c2)cc1` [Compound 51]: the IC50 at hP2X2/3H and on hP2X3 was less than 100 nM throughout.
On to `Cc1ccc(-c2cc(C(=O)N[C@H](C)c3cnc(C)nc3)cc(C(=O)N3CCCC3)c2)cc1` [Compound 52], for which the IC50 at hP2X2/3H and on hP2X3 was less than 100 nM throughout.
`Cc1ncc(CNC(=O)c2cc(C(=O)N3CCCC3)cc(-c3ccc(F)cc3F)c2)cn1` [Compound 53]: the IC50 at hP2X2/3H was greater than 1000 nM; at hP2X3, 100 to 500 nM.
Taken in the same sequence, the figures for `Cc1ncc(CNC(=O)c2cc(C(=O)N3CCCC3)cc(-c3ccc(C(F)(F)F)cc3)c2)cn1` [Compound 54] were greater than 1000 nM and greater than 1000 nM.
For the compound `CCCS(=O)(=O)c1cc(C(=O)N[C@H](C)c2cnc(C)nc2)cc(-c2ccc(C)cc2)c1` [Compound 55], the IC50 on hP2X2/3H and on hP2X3 was less than 100 nM in each case.
On to `CCCS(=O)(=O)c1cc(C(=O)NCc2ccc(C)nc2)cc(-c2ccc(C)cc2)c1` [Compound 56], for which the IC50 on hP2X2/3H and on hP2X3 was less than 100 nM in each case.

These data come from US8946439B2, “Amide compounds, compositions and uses thereof” (Evotec AG, priority 2008, dated 2015).
